Reference: patent US20250270213A1, “PI3Ka INHIBITORS” (Synnovation Therapeutics, Inc., priority 2022, published 2025)

test system: T47D (PIK3CA H1047R) cells; test: pS473 AKT assay with 2.5% FBS, T47D cells; format: cell-based; settings: Homo sapiens, pSer473 AKT, DMEM with 2.5% FBS, 2 h treatment, read-out: T47D_IC50
Procedure, shortened: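 In-cell chemiluminescent ELISA of AKT Ser473 phosphorylation, using anti-pSer473 primary and HRP secondary antibodies on fixed cells. T47D (PIK3CA H1047R) cells had 2 h of compound treatment in DMEM containing 2.5% FBS; IC50 derived from dose-response.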

IC50, < 1000 nM:
CCn1c(=O)c2cc(C)cc(C(C)Nc3ccc(Cl)nc3-c3ncn(C)n3)c2c2cn(C3CCN(CCO)CC3)nc21 (centres unmarked) [Example 203, 9-(1-((6-Chloro-2-(1-methyl-1H-1,2,4-triazol-3-yl)pyridin-3-yl)amino)ethyl)-4-ethyl-2-(1-(2-hydroxyethyl)piperidin-4-yl)-7-methyl-2,4-dihydro-5H-pyrazolo[3,4-c]isoquinolin-5-one]
Cc1cc(C(C)Nc2ccc(Cl)nc2C(=O)O)c2c(c1)c(=O)n(C)c1c2cnn1C (centres unmarked) [Compound I-17, 6-Chloro-3-((1-(3,4,7-trimethyl-5-oxo-4,5-dihydro-3H-pyrazolo[3,4-c]isoquinolin-9-yl)ethyl)amino)picolinic acid]
Cc1cc(C(C)Nc2ccc(Cl)nc2-c2cnn(C)c2)c2c(c1)c(=O)n(C)c1c2cnn1C1CCN(C(=O)CN(C)C)CC1 (centres unmarked) [Example 196, 9-(1-((6-chloro-2-(1-methyl-1H-pyrazol-4-yl)pyridin-3-yl)amino)ethyl)-3-(1-(dimethylglycyl)piperidin-4-yl)-4,7-dimethyl-3,4-dihydro-5H-pyrazolo[3,4-c]isoquinolin-5-one]
CCn1c(=O)c2cc(C)cc(C(C)Nc3ccc(Cl)nc3-c3ncn(C)n3)c2c2cnn(-c3cccnc3)c21 (centres unmarked) [Example 274, 9-[1-[[6-Chloro-2-(1-methyl-1,2,4-triazol-3-yl)-3-pyridyl]amino]ethyl]-4-ethyl-7-methyl-3-(3-pyridyl)pyrazolo[3,4-c]isoquinolin-5-one]
CCn1ncc2c3c(C(C)Nc4ccc(Cl)nc4-c4cn[nH]c4)cc(C)cc3c(=O)n(C)c21 (centres unmarked) [Compound 51, 9-(1-((6-chloro-2-(1H-pyrazol-4-yl)pyridin-3-yl)amino)ethyl)-3-ethyl-4,7-dimethyl-3,4-dihydro-5H-pyrazolo[3,4-c]isoquinolin-5-one]
CNC(=O)c1ccc(-c2nc(C)ccc2NC(C)c2cc(C)cc3c(=O)n(C)c4c(cnn4C4CCN(C)CC4)c23)cn1 (centres unmarked) [Compound 170]
[2H]C([2H])([2H])n1c(=O)c2cc(C)cc(C(C)Nc3ccc(Cl)nc3-c3cnn(C)c3)c2c2cnn(C3CCN(C(=O)c4ccnn4C)C3)c21 (centres unmarked) [Compound 156, 9-(1-((6-chloro-2-(1-methyl-1H-pyrazol-4-yl)pyridin-3-yl)amino)ethyl)-7-methyl-4-(methyl-d3)-3-(1-(1-methyl-1H-pyrazole-5-carbonyl)pyrrolidin-3-yl)-3,4-dihydro-5H-pyrazolo[3,4-c]isoquinolin-5-one]
CCn1ncc2c3c(C(C)Nc4ccc(Cl)nc4-c4cnn(C5CCN(C(=O)N(C)C)CC5)c4)cc(C)cc3c(=O)n(C)c21 (centres unmarked) [Example 233, 4-(4-(6-chloro-3-((1-(3-ethyl-4,7-dimethyl-5-oxo-4,5-dihydro-3H-pyrazolo[3,4-c]isoquinolin-9-yl)ethyl)amino)pyridin-2-yl)-1H-pyrazol-1-yl)-N,N-dimethylpiperidine-1-carboxamide]
Cc1cc(C(C)Nc2ccc(Cl)nc2-c2noc(=O)[nH]2)c2c(c1)c(=O)n(C)c1c2cnn1CC1CC1 (centres unmarked) [Compound 68, 3-(6-Chloro-3-((1-(3-(cyclopropylmethyl)-4,7-dimethyl-5-oxo-4,5-dihydro-3H-pyrazolo[3,4-c]isoquinolin-9-yl)ethyl)amino)pyridin-2-yl)-1,2,4-oxadiazol-5(4H)-one]
CCn1ncc2c3c(C(C)Nc4ccc(Cl)nc4-c4cnn(C5CCN(C)CC5)c4)cc(C)cc3c(=O)n(C)c21 (centres unmarked) [Compound 79, 9-(1-((6-Chloro-2-(1-(1-methylpiperidin-4-yl)-1H-pyrazol-4-yl)pyridin-3-yl)amino)ethyl)-3-ethyl-4,7-dimethyl-3,4-dihydro-5H-pyrazolo[3,4-c]isoquinolin-5-one]
CCn1ncc2c3c(C(C)Nc4ccc(Cl)nc4-c4ccc(C(=O)N(C)C)cc4)cc(C)cc3c(=O)n(C)c21 (centres unmarked) [Compound 46, 4-(6-chloro-3-((1-(3-ethyl-4,7-dimethyl-5-oxo-4,5-dihydro-3H-pyrazolo[3,4-c]isoquinolin-9-yl)ethyl)amino)pyridin-2-yl)-N,N-dimethylbenzamide]
Cc1cc(C(C)Nc2ccc(C)nc2C(=O)O)c2c(c1)c(=O)n(C)c1c(C)ncn21 (centres unmarked) [Compound I-8, 6-Methyl-3-((1-(3,4,7-trimethyl-5-oxo-4,5-dihydroimidazo[1,5-a]quinazolin-9-yl)ethyl)amino)picolinic acid]
CCn1ncc2c3c(C(C)Nc4ccc(Cl)nc4-c4cncnc4)cc(C)cc3c(=O)n(C)c21 (centres unmarked) [Compound 44, 9-(1-((6-chloro-2-(pyrimidin-5-yl)pyridin-3-yl)amino)ethyl)-3-ethyl-4,7-dimethyl-3,4-dihydro-5H-pyrazolo[3,4-c]isoquinolin-5-one]
COc1cc(-c2nc(Cl)ccc2NC(C)c2cc(C)cc3c(=O)n4c5c(cnn5CCC4)c23)ccn1 (centres unmarked) [Compound 312, 10-(1-((6-chloro-2′-methoxy-[2,4′-bipyridin]-3-yl)amino)ethyl)-8-methyl-4,5-dihydro-3H,6H-2,2a,5a-triazaaceanthrylen-6-one]
CCn1ncc2c3c(C(C)Nc4ccc(Cl)nc4-c4cncnc4)cc(C)cc3c(=O)n(CC(F)F)c21 (centres unmarked) [Example 238, 9-(1-((6-chloro-2-(pyrimidin-5-yl)pyridin-3-yl)amino)ethyl)-4-(2,2-difluoroethyl)-3-ethyl-7-methyl-3,4-dihydro-5H-pyrazolo[3,4-c]isoquinolin-5-one]
CCn1ncc2c3c(C(C)Nc4ccccc4-c4cnn(CCO)c4)cc(C)cc3c(=O)n(C)c21 (centres unmarked) [Compound 56, 3-ethyl-9-(1-((2-(1-(2-hydroxyethyl)-1H-pyrazol-4-yl)phenyl)amino)ethyl)-4,7-dimethyl-3,4-dihydro-5H-pyrazolo[3,4-c]isoquinolin-5-one]
CC(=O)N1CCC(c2nc(Cl)ccc2NC(C)c2cc(C)cc3c(=O)n(C)c4c(cnn4CCO)c23)CC1 (centres unmarked) [Example 258, 9-[1-[[2-(1-Acetyl-4-piperidyl)-6-chloro-3-pyridyl]amino]ethyl]-3-(2-hydroxyethyl)-4,7-dimethyl-pyrazolo[3,4-c]isoquinolin-5-one]
CCn1ncc2c3c(C(C)Nc4ccc(Cl)nc4-c4nncn4C)cc(C)cc3c(=O)n(C)c21 (centres unmarked) [Example 229, 9-(1-((6-chloro-2-(4-methyl-1H-1,2,4-triazol-3-yl)pyridin-3-yl)amino)ethyl)-3-ethyl-4,7-dimethyl-3,4-dihydro-5H-pyrazolo[3,4-c]isoquinolin-5-one]
COC(=O)N1CC(n2ncc3c4c(C(C)Nc5ccc(Cl)nc5-c5ncn(C)n5)cc(C)cc4c(=O)n(C)c32)C1 (centres unmarked) [Compound 98, methyl 3-(9-(1-((6-chloro-2-(1-methyl-1H-1,2,4-triazol-3-yl)pyridin-3-yl)amino)ethyl)-4,7-dimethyl-5-oxo-4,5-dihydro-3H-pyrazolo[3,4-c]isoquinolin-3-yl)azetidine-1-carboxylate]
Cc1cc(C(C)Nc2ccc(Cl)nc2-c2ncn(C)n2)c2c(c1)c(=O)n1c3c2cnn3CCC1 (centres unmarked) [Compound 296, 10-(1-((6-chloro-2-(1-methyl-1H-1,2,4-triazol-3-yl)pyridin-3-yl)amino)ethyl)-8-methyl-4,5-dihydro-3H,6H-2,2a,5a-triazaaceanthrylen-6-one]
Cc1cc(C(C)Nc2ccc(Cl)nc2-c2ncn(C)n2)c2c(c1)c(=O)n(C)c1c2cnn1C1CN(CC(F)F)C1 (centres unmarked) [Compound 94, 9-(1-((6-chloro-2-(1-methyl-1H-1,2,4-triazol-3-yl)pyridin-3-yl)amino)ethyl)-3-(1-(2,2-difluoroethyl)azetidin-3-yl)-4,7-dimethyl-3,4-dihydro-5H-pyrazolo[3,4-c]isoquinolin-5-one]
Cc1cc(C(C)Nc2ccc(Cl)nc2-c2cnn(C)c2)c2c(c1)c(=O)n(C)c1c2cnn1C1CCCN(C)C1 (centres unmarked) [Example 279, 9-[1-[[6-chloro-2-(1-methylpyrazol-4-yl)-3-pyridyl]amino]ethyl]-4,7-dimethyl-3-(1-methyl-3-piperidyl)pyrazolo[3,4-c]isoquinolin-5-one]
Cc1cc(C(C)Nc2ccc(Cl)nc2N2CCN3C(=O)OCC3C2)c2c(c1)c(=O)n1c3c2cnn3CCC1 (centres unmarked) [Compound 322, 7-(6-chloro-3-((1-(8-methyl-6-oxo-4,5-dihydro-3H,6H-2,2a,5a-triazaaceanthrylen-10-yl)ethyl)amino)pyridin-2-yl)hexahydro-3H-oxazolo[3,4-a]pyrazin-3-one]
Cc1cc(C(C)Nc2ccc(Cl)nc2-c2cnn(C3CCN(C)C3)c2)c2c(c1)c(=O)n1c3c2cnn3CCC1 (centres unmarked) [Compound 303, 10-(1-((6-chloro-2-(1-(1-methylpyrrolidin-3-yl)-1H-pyrazol-4-yl)pyridin-3-yl)amino)ethyl)-8-methyl-4,5-dihydro-3H,6H-2,2a,5a-triazaaceanthrylen-6-one]
Cc1cc(C(C)Nc2ccc(Cl)nc2-c2nnco2)c2c(c1)c(=O)n(C)c1c2cnn1C1CCN(C)CC1 (centres unmarked) [Compound 162, 9-[1-[[6-chloro-2-(1,3,4-oxadiazol-2-yl)-3-pyridyl]amino]ethyl]-4,7-dimethyl-3-(1-methyl-4-piperidyl)pyrazolo[3,4-c]isoquinolin-5-one]
CCn1c(=O)c2cc(C)cc(C(C)Nc3ccc(Cl)nc3-c3ccnc(C)c3)c2c2cnn([C@H]3CCOC3)c21 (stereo partly drawn) [Example 218, 9-(1-((6-chloro-2′-methyl-[2,4′-bipyridin]-3-yl)amino)ethyl)-4-ethyl-7-methyl-3-((S)-tetrahydrofuran-3-yl)-3,4-dihydro-5H-pyrazolo[3,4-c]isoquinolin-5-one]
